The source of these data is PubChem BioAssay (NCI).

Among the test systems are UO-31 renal; OVCAR-5 ovarian; HL-60(TB) leukemia; LOX IMVI melanoma; SK-MEL-5 melanoma; RPMI-8226 leukemia; SK-MEL-28 melanoma; HCT-15 colon; DU-145 prostate; SR leukemia.
What all share (test): growth of human tumour cells (NCI), 48 h

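Results reflect a 48-hour exposure of cells in 96-well plates to compound at five concentrations. At the GI50, growth is halved. TGI is the concentration that stops growth completely.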 Some results are limits rather than exact numbers.

Take `NC1=NC(=O)C(CC(=O)Nc2ccc([N+](=O)[O-])cc2[N+](=O)[O-])S1` (stereo not given): the TGI in the assay with UO-31 renal, in the assay with OVCAR-5 ovarian, with HL-60(TB) leukemia, in the assay on LOX IMVI melanoma, in the assay with SK-MEL-5 melanoma and in the assay with RPMI-8226 leukemia was more than 100 µM each time. This compound came in with a TGI in the assay on SK-MEL-28 melanoma of more than 100 µM.
Regarding `COC(=O)NC/C=C\c1nc(CC/C=C\C(=O)OC2CC3CC(=O)O[C@@H](/C=C/CC(C)C)C[C@@H]4CCC(C)C(C[C@@H](OC)CC(C2)O3)O4)co1` (stereo not given in full), the GI50 with HCT-15 colon was less than 0.01 µM; in the assay with DU-145 prostate, 4.59 µM; in the assay on UO-31 renal, 2.46 µM; in the assay with OVCAR-5 ovarian it was less than 0.01 µM; in the assay with LOX IMVI melanoma, 0.091 µM; with SK-MEL-5 melanoma, less than 0.01 µM. In addition, the GI50 in the assay with SK-MEL-28 melanoma is 26.5 µM. For the same compound, the TGI in the assay with HCT-15 colon was 20.7 µM; with DU-145 prostate, more than 100 µM; with UO-31 renal it was 74.7 µM; in the assay with OVCAR-5 ovarian, more than 100 µM; with LOX IMVI melanoma, 61.9 µM; in the assay on SK-MEL-5 melanoma, 19 µM. In addition, the TGI in the assay on SK-MEL-28 melanoma was more than 100 µM.
For the compound `CN1CCN(C)C1c1cccc(C2N(C)CCN2C)c1`, the TGI with HCT-15 colon, in the assay on UO-31 renal, with OVCAR-5 ovarian, in the assay with HL-60(TB) leukemia, in the assay on LOX IMVI melanoma and in the assay on RPMI-8226 leukemia was more than 100 µM each time. Besides, the TGI with SK-MEL-28 melanoma is more than 100 µM.
In the case of `C=CC(=O)N1CCN(c2ncnc3c(F)c(-c4c(O)cccc4F)c(Cl)cc23)CC1`, the GI50 in the assay with HCT-15 colon is 10 µM; with DU-145 prostate it was 10.6 µM; in the assay with UO-31 renal, 14.7 µM; with OVCAR-5 ovarian, 18.4 µM; with HL-60(TB) leukemia, 6.76 µM; in the assay with LOX IMVI melanoma it was 12.6 µM. For the same compound, the results for the GI50 with SK-MEL-5 melanoma, in the assay on RPMI-8226 leukemia and in the assay with SK-MEL-28 melanoma were 13.6 µM, 5.69 µM and 13.3 µM, respectively. Also, the TGI in the assay with HCT-15 colon came to 27 µM; in the assay with DU-145 prostate, 23.6 µM; with UO-31 renal, 29 µM; in the assay on OVCAR-5 ovarian it was 34.1 µM; with HL-60(TB) leukemia it was 45.6 µM; in the assay on LOX IMVI melanoma, 31 µM. Also, the TGI with SK-MEL-5 melanoma was determined as 26.5 µM; in the assay on RPMI-8226 leukemia, 36.6 µM; in the assay with SK-MEL-28 melanoma, 26 µM.
As to `C=C1C(=O)O[C@H]2[C@H]1CC/C(COC(=O)c1cc3cc(OC)ccc3[nH]1)=C\CC[C@@]1(C)O[C@@H]21`, the GI50 with HCT-15 colon is 0.323 µM; in the assay with DU-145 prostate it was 1.03 µM; in the assay with UO-31 renal, 1.12 µM; with OVCAR-5 ovarian, 1.77 µM; in the assay with HL-60(TB) leukemia, 0.326 µM; with LOX IMVI melanoma, 0.3 µM. The GI50 in the assay with SK-MEL-5 melanoma is 1.74 µM; in the assay on RPMI-8226 leukemia, 0.509 µM; in the assay on SK-MEL-28 melanoma, 1.23 µM. The TGI amounted to 1.6 µM with HCT-15 colon; 2.19 µM with DU-145 prostate; 2.37 µM in the assay with UO-31 renal; 3.76 µM in the assay on OVCAR-5 ovarian; 2.08 µM with HL-60(TB) leukemia; 1.34 µM in the assay on LOX IMVI melanoma. Moreover, the TGI came to 3.17 µM with SK-MEL-5 melanoma, 3.87 µM in the assay on RPMI-8226 leukemia and 2.61 µM with SK-MEL-28 melanoma.
For `CC(=O)OCCOCBr`, the TGI with HCT-15 colon, with UO-31 renal, in the assay with OVCAR-5 ovarian, in the assay with HL-60(TB) leukemia, with LOX IMVI melanoma and in the assay with SK-MEL-5 melanoma was more than 100 µM each time. For the same compound, the TGI in the assay with RPMI-8226 leukemia and in the assay with SK-MEL-28 melanoma was more than 100 µM each time.
As to `C=C(COC(C)=O)CC(/C=C(\C)CCC=C(C)C)OC(C)=O` (stereo not given), the TGI in the assay on HCT-15 colon, in the assay on UO-31 renal, in the assay on OVCAR-5 ovarian, with HL-60(TB) leukemia, in the assay on LOX IMVI melanoma and in the assay on SK-MEL-5 melanoma was more than 100 µM each time. Further, the TGI with SK-MEL-28 melanoma was more than 100 µM.
Consider `O=C(Nc1ccc(S(=O)(=O)N[C@@H](C(=O)O)c2ccccc2)cc1)c1ccc(F)cc1`, for which the TGI in the assay with HCT-15 colon, in the assay on UO-31 renal, with OVCAR-5 ovarian, in the assay with LOX IMVI melanoma, in the assay on SK-MEL-5 melanoma and in the assay on RPMI-8226 leukemia was more than 100 µM each time. In addition, the TGI in the assay with SK-MEL-28 melanoma is more than 100 µM.
`CC(O)CN1C(=O)NC(Cc2ccccc2)C1=O` (stereo not given): the TGI in the assay with UO-31 renal, with OVCAR-5 ovarian, in the assay on HL-60(TB) leukemia, with LOX IMVI melanoma, with SR leukemia and in the assay with SK-MEL-28 melanoma was more than 100 µM in each case.
`CC1CCCC(C(=O)/C(=C/c2cccc(Cl)c2)C(=O)C(=O)O)C1` (stereo not given): the TGI was 28.2 µM in the assay on HCT-15 colon; more than 100 µM with UO-31 renal; more than 100 µM in the assay with OVCAR-5 ovarian; 47.9 µM in the assay on HL-60(TB) leukemia; more than 100 µM in the assay on SK-MEL-5 melanoma; 38 µM in the assay on RPMI-8226 leukemia. In the assay with SK-MEL-28 melanoma, the TGI was more than 100 µM.
`c1cc[c]([Sn]([S]c2cccc3cccnc23)([c]2ccccc2)[c]2ccccc2)cc1`: the GI50 in the assay with HCT-15 colon was 0.0196 µM; in the assay with UO-31 renal, 0.0511 µM; with LOX IMVI melanoma, 0.0159 µM; with SK-MEL-5 melanoma, 0.042 µM; with SK-MEL-28 melanoma it was 0.0364 µM. For the same compound, the TGI in the assay on HCT-15 colon is 0.0467 µM; in the assay on UO-31 renal it was 0.145 µM; in the assay with LOX IMVI melanoma, 0.0304 µM; in the assay with SK-MEL-5 melanoma, 0.277 µM; in the assay on SK-MEL-28 melanoma it was 0.15 µM.
In the case of `CN(C)C(=S)/N=c1\ss/c(=N\S(=O)(=O)c2ccccc2)n1-c1ccccc1`, the TGI was more than 100 µM in the assay on HCT-15 colon; more than 100 µM in the assay with UO-31 renal; more than 100 µM in the assay on OVCAR-5 ovarian; more than 100 µM in the assay with HL-60(TB) leukemia; more than 100 µM in the assay with LOX IMVI melanoma; 78.3 µM in the assay with SK-MEL-5 melanoma. The TGI with RPMI-8226 leukemia and in the assay with SK-MEL-28 melanoma was more than 100 µM in each case.
As to `COc1cc(/C=C\c2ccc(O)cc2)cc(OC)c1OC`, the TGI was more than 100 µM in the assay with HCT-15 colon; more than 36.6 µM in the assay on UO-31 renal; more than 100 µM with OVCAR-5 ovarian; more than 29.3 µM in the assay on HL-60(TB) leukemia; more than 100 µM in the assay on LOX IMVI melanoma; 18.6 µM in the assay with SK-MEL-5 melanoma. Also, the TGI in the assay with RPMI-8226 leukemia is 35.3 µM; in the assay with SK-MEL-28 melanoma it was 9.61 µM.
